From ChEMBL document CHEMBL6109155, “Discovery of Phenylacylpiperidine as Novel sEH Inhibitors through Scaffold Hopping of Natural Stilbene” (J Med Chem, 2025)
Active and inactive are the calls of the source. No cut-off for these calls is given here.

Tests used:
[1] = test system: Mus musculus; experiment: (§1) Anti-inflammatory activity in CD-1 mouse model of cerulein-induced acute pancreatitis assessed as decrease in inflammatory response in pancreas at 10 mg/kg, ip drug administered at 30 mins and 2.5 hrs post-first cerulein injection and measured after 6 hrs post-first cerulein injection by H and E staining based analysis; type: functional, organism-based; settings: time 3.5-5.5 hrs
[2] = test system: Mus musculus; experiment: Anti-inflammatory activity in BALB/c mouse model of carrageenan-induced paw edema assessed as increase in plasma 8,9-EET levels at 10 mg/kg, po measured after 6 hrs relative to control; type: functional
[3] = test system: Rattus norvegicus; experiment: Anti-inflammatory activity in Sprague-Dawley rat model of CFA-induced rheumatoid arthritis assessed as decrease in swelling degree of left paw at 10 mg/kg, po administered daily measured after 16 to 19 days; type: functional, organism-based; settings: time 16-19 day
[4] = Ratio of AUC (0 to 24 hrs) in brain to plasma in C57BL/6J mouse at 20 mg/kg, po measured for 24 hrs; type: ADME, organism-based; settings: brain and plasma, read-out: Ratio AUC
[5] = Ratio of AUC (0 to 24 hrs) in kidney to plasma in C57BL/6J mouse at 20 mg/kg, po measured for 24 hrs; type: ADME, organism-based; settings: kidney and plasma, read-out: Ratio AUC
[6] = Cmax in brain of C57BL/6J mouse at 20 mg/kg, po measured for 24 hrs; type: ADME, organism-based
[7] = test system: Rattus norvegicus; experiment: Anti-inflammatory activity in Sprague-Dawley rat model of CFA-induced rheumatoid arthritis assessed as decrease in paw swelling at 10 mg/kg, po administered daily measured after 7 days; type: functional, organism-based; settings: time 7.0 day
[8] = target: hERG (Homo sapiens, UniProt Q12809); experiment: Inhibition of hERG at 10 uM by whole-cell patch-clamp method relative to control; type: toxicity
[9] = Clearance in Sprague-Dawley rat at 5 mg/kg, iv measured for 24 hrs; type: ADME, organism-based; settings: in vivo
[10] = test system: Mus musculus; experiment: Anti-inflammatory activity in BALB/c mouse model of carrageenan-induced paw edema assessed as increase in ratio of 8,9-EET to DHET plasma levels at 10 mg/kg, po measured after 6 hrs relative to control; type: functional
[11] = AUC (0 to 24 hrs) in liver of C57BL/6J mouse at 20 mg/kg, po measured for 24 hrs; type: ADME, organism-based
[12] = test system: Mus musculus; experiment: Anti-inflammatory activity in BALB/c mouse model of carrageenan-induced paw edema assessed as inhibition of paw swelling at 20 mg/kg, po measured for 2 hrs relative to control; type: functional
[13] = test system: Mus musculus; experiment: Anti-inflammatory activity in BALB/c mouse model of carrageenan-induced paw edema assessed as increase in plasma 14,15-EET levels at 10 mg/kg, po measured after 6 hrs relative to control; type: functional
[14] = test system: Rattus norvegicus; experiment: Anti-inflammatory activity in Sprague-Dawley rat model of CFA-induced rheumatoid arthritis assessed as improvement in body weight at 10 mg/kg, po administered daily measured for 19 days; type: functional, organism-based; settings: time 19.0 day
[15] = test system: RAW264.7; experiment: Anti-inflammatory activity in LPS-indeced mouse RAW264.7 cells assessed as reduction in IL-1beta level at 10 uM preincubated for 1 hr followed by LPS addition measured after 24 hrs by ELISA; type: functional, cell-based
[16] = test system: Mus musculus; experiment: Anti-inflammatory activity in BALB/c mouse model of carrageenan-induced paw edema assessed as inhibition of paw swelling at 20 mg/kg, po measured after 6 hrs relative to control; type: functional
[17] = test system: Rattus norvegicus; experiment: Anti-inflammatory activity in Sprague-Dawley rat model of CFA-induced rheumatoid arthritis assessed as increase in ratio of plasma 11,12-EET to DHET levels at 10 mg/kg, po administered daily measured after 19 days relative to control; type: functional; settings: time 19 day
[18] = Cmax in liver of C57BL/6J mouse at 20 mg/kg, po measured for 24 hrs; type: ADME, organism-based
[19] = AUC (0 to 24 hrs) in Sprague-Dawley rat at 5 mg/kg, iv measured for 24 hrs; type: ADME, organism-based; settings: in vivo
[20] = test system: Rattus norvegicus; experiment: Anti-inflammatory activity in Sprague-Dawley rat model of CFA-induced rheumatoid arthritis assessed as BV value at 10 mg/kg, po administered daily measured after 19 days by micro-CT analysis (reference value: 37.091 mm3); type: functional; settings: time 19 day
[21] = test system: Rattus norvegicus; experiment: Anti-inflammatory activity in Sprague-Dawley rat model of CFA-induced rheumatoid arthritis assessed as decrease in swelling degree of right paw at 10 mg/kg, po administered daily measured after 4 days; type: functional, organism-based; settings: time 4.0 day
[22] = AUC (0 to 24 hrs) in kidney of C57BL/6J mouse at 20 mg/kg, po measured for 24 hrs; type: ADME, organism-based
[23] = test system: Rattus norvegicus; experiment: Anti-inflammatory activity in Sprague-Dawley rat model of CFA-induced rheumatoid arthritis assessed as […] in new blood vessel formation in synovial tissue at 10 mg/kg, po administered daily measured after 19 days by H and E staining based analysis; type: functional, organism-based; settings: time 19.0 day
[24] = Cmax in kidney of C57BL/6J mouse at 20 mg/kg, po measured for 24 hrs; type: ADME, organism-based
[25] = test system: Mus musculus; experiment: Anti-inflammatory activity in BALB/c mouse model of carrageenan-induced paw edema assessed as inhibition of paw swelling at 20 mg/kg, po measured for 6 hrs relative to control; type: functional
[26] = test system: Rattus norvegicus; experiment: Anti-inflammatory activity in Sprague-Dawley rat model of CFA-induced rheumatoid arthritis assessed as improvement in food intake at 10 mg/kg, po administered daily measured for 19 days; type: functional, organism-based; settings: time 19.0 day
[27] = target: Cytochrome P450 2C9 (Homo sapiens, UniProt P11712); experiment: Inhibition of CYP2C9 in human liver microsomes preincubated for 10 mins followed by NADPH addition measured after 3.5 mins by LC-MS/MS analysis; type: ADME, Microsome
[28] = Ratio of Cmax in liver to plasma in C57BL/6J mouse at 20 mg/kg, po measured for 24 hrs; type: ADME, organism-based; settings: liver and plasma
[29] = test system: Rattus norvegicus; experiment: Anti-inflammatory activity in Sprague-Dawley rat model of CFA-induced rheumatoid arthritis assessed as increase in ratio of plasma 8,9-EET to DHET levels at 10 mg/kg, po administered daily measured after 19 days relative to control; type: functional; settings: time 19 day
[30] = test system: Rattus norvegicus; experiment: Anti-inflammatory activity in Sprague-Dawley rat model of CFA-induced rheumatoid arthritis assessed as BS value at 10 mg/kg, po administered daily measured after 19 days by micro-CT analysis (reference value: 636.014 mm2); type: functional; settings: time 19 day
[31] = test system: Mus musculus; experiment: as §1, with “pancreatic edema” for “inflammatory response in pancreas”; type: functional, organism-based; settings: time 3.5-5.5 hrs
[32] = target: Cytochrome P450 3A4 (Homo sapiens, UniProt P08684); experiment: Inhibition of CYP3A4 in human liver microsomes preincubated for 10 mins followed by NADPH addition measured after 3.5 mins by LC-MS/MS analysis; type: ADME, Microsome
[33] = test system: Rattus norvegicus; experiment: Anti-inflammatory activity in Sprague-Dawley rat model of CFA-induced rheumatoid arthritis assessed as BS/BV value at 10 mg/kg, po administered daily measured after 19 days by micro-CT analysis (reference value: 17.147 %); type: functional; settings: time 19 day
[34] = Volume of distribution in Sprague-Dawley rat at 5 mg/kg, iv measured for 24 hrs; type: ADME, organism-based; settings: in vivo
[35] = AUC (0 to 24 hrs) in brain of C57BL/6J mouse at 20 mg/kg, po measured for 24 hrs; type: ADME, organism-based

Sequence of Cytochrome P450 3A4 (P08684 whole entry): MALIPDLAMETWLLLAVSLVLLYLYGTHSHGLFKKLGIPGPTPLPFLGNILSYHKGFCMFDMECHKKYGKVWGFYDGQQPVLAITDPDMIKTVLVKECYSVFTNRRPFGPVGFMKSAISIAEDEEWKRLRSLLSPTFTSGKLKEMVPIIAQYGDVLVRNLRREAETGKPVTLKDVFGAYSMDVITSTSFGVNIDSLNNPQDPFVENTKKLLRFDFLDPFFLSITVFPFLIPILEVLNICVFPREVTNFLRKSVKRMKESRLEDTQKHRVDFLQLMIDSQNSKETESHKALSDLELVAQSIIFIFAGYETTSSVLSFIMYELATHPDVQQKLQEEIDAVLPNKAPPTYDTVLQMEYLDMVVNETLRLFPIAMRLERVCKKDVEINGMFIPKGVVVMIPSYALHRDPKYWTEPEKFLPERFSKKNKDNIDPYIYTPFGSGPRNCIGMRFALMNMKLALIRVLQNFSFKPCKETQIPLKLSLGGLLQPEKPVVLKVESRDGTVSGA
Sequence of Cytochrome P450 2C9 (P11712 whole entry): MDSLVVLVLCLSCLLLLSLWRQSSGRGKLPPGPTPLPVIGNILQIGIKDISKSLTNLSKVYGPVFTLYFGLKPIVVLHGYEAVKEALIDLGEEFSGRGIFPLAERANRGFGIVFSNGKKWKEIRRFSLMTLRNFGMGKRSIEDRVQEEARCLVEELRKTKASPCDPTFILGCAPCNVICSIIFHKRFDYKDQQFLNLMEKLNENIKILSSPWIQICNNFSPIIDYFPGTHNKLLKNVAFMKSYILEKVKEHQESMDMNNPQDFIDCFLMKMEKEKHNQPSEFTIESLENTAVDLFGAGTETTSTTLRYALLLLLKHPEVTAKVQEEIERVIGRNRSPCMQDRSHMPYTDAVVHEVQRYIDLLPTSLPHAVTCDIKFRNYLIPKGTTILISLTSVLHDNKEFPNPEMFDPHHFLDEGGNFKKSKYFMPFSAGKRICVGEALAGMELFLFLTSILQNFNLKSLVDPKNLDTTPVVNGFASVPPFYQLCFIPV
Sequence of hERG (Q12809 whole entry): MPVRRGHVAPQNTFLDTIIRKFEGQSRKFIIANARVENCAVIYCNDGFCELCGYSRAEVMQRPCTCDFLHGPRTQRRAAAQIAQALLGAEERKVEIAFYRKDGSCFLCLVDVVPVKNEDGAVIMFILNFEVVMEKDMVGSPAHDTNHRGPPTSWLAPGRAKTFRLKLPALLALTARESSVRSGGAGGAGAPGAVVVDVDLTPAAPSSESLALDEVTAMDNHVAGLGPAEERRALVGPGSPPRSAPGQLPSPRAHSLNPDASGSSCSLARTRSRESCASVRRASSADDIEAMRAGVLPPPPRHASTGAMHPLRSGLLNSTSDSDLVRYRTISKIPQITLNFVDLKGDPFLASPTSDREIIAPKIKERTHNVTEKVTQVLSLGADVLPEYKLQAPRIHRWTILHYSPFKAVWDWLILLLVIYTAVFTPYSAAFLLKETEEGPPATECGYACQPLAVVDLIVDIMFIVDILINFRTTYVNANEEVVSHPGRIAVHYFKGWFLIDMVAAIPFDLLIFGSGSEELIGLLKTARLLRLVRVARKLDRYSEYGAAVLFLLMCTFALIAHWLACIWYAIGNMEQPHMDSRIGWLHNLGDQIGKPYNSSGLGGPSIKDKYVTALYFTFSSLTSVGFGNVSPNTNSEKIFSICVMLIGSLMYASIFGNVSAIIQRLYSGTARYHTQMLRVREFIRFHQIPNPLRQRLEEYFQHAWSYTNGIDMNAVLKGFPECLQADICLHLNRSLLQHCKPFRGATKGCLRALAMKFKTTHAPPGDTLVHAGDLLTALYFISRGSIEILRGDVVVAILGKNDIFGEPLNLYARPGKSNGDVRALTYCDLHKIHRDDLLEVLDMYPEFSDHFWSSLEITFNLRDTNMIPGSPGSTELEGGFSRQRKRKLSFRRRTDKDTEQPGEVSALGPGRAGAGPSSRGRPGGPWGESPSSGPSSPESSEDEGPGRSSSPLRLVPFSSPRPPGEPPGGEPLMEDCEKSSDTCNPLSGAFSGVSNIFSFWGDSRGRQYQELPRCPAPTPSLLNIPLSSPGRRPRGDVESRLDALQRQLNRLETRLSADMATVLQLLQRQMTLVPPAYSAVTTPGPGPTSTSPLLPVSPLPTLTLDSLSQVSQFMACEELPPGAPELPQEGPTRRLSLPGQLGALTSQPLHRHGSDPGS

Kp at 24 h [4]: 0.02 | Kp at 24 h [5]: 32.4 | Cmax [6]: 27.9 ng/g | clearance [9]: 38.8 mL/min/kg | AUC(0-t) at 24 h [11]: 27100 ng·h/mL | Cmax [18]: 3230 ng/g | AUC(0-t) at 24 h [19]: 2190 ng·h/mL | AUC(0-t) at 24 h [22]: 17200 ng·h/mL | Cmax [24]: 4540 ng/g | IC50 [27]: 48.2 µM | Kp at 24 h [28]: 6.71 | IC50 [32]: 22.9 µM | Vd [34]: 1.39 L/kg | AUC(0-t) at 24 h [35]: 11 ng·h/mL
Structure (SMILES): COc1cc(CC(=O)N2CCC(NC(=O)NCc3ccc(OC(F)(F)F)cc3)CC2)cc(OC)c1
Activity [1]: Active | Activity [2]: 28.7% | Activity [3]: Active | Activity [7]: Active | inhibition at 10 µM [8]: 12.5% | Activity [10]: 355% | inhibition in vivo at 20 mg/kg [12]: 44.6% | Activity [13]: 128% | Activity [14]: Active | Activity [15]: Active | inhibition in vivo at 20 mg/kg [16]: 38.1% | Activity [17]: 111% | Activity [20]: 36.234 mm3 | Activity [21]: Active | Activity [23]: Active; Few Newly Formed Blood Vessels Was Observed | inhibition in vivo at 20 mg/kg [25]: 38.1% | Activity [26]: Active | Activity [29]: 203% | Activity [30]: 432.009 mm2 | Activity [31]: Active | Activity [33]: 11.923%
